Assay results: US20070004680A1, “Compositions and methods for modulating gated ion channels” (PainCeptor Pharma Corporation, priority 2004, published 2007)

Legend:
[1] = target: T1, ASIC1a (Rattus norvegicus, UniProt P55926); test: whole cell patch clamp electrophysiology, ASIC1a; format: cell-based; conditions: for Fraction of Control, ASIC1a - pH Dependency: 10 μM compound
T1 construct: expressed in transfected cells; host or cells: HEK cells according to b213
T1 sequence (P55926 1-526): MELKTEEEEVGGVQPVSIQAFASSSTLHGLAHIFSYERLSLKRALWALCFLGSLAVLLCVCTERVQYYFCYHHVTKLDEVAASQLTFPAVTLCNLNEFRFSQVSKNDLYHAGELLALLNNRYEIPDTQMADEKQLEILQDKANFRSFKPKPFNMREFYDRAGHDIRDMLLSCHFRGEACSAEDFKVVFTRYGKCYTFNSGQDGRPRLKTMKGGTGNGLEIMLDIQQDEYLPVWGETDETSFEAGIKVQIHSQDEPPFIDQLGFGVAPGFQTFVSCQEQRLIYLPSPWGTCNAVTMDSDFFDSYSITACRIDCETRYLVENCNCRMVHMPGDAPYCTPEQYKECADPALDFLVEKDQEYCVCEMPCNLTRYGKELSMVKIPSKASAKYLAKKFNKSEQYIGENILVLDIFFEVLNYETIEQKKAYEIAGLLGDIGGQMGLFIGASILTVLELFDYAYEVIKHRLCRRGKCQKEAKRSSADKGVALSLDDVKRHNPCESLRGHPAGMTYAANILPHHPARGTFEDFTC
Experimental: (§1) Another example of an in vitro assessment method consists of using mammalian heterologous expression systems, which are known to the skilled in the art, and include a variety of mammalian cell lines such as COS, HEK, e.g., HEK293and/or CHO, cells. Cell lines are transfected with gated ion channel(s) and used to perform electrophysiology as follows:
(§2) All experiments are performed at room temperature (20-25° C.) in voltage clamp using conventional whole cell patch clamp methods (Neher, E., et al. (1978) Pfluegers Arch 375:219-228).
(§3) The amplifier used is the EPC-9 (HEKA-electronics, Lambrect, Germany) run by a Macintosh G3 computer via an ITC-16 interface. Experimental conditions are set with the Pulse-software accompanying the amplifier. Data is low pass filtered and sampled directly to hard-disk at a rate of 3 times the cut-off frequency.
(§4) Pipettes are pulled from borosilicate glass using a horizontal electrode puller (Zeitz-lnstrumente, Augsburg, Germany). The pipette resistances are 2-3 MOhms in the salt solutions used in these experiments. The pipette electrode is a chloridized silver wire, and the reference is a silver chloride pellet electrode (In Vivo Metric, Healdsburg, USA) fixed to the experimental chamber. The electrodes are zeroed with the open pipette in the bath just prior to sealing.
(§5) Coverslips with the cells are transferred to a 15 μl experimental chamber mounted on the stage of an inverted microscope (IMT-2, Olympus) supplied with Nomarski optics. Cells are continuously superfused with extracellular saline at a rate of 2.5 ml/min. After giga-seal formation, the whole cell configuration is attained by suction. The cells are held at a holding voltage of −60 mV and at the start of each experiment the current is continuously measured for 45 s to ensure a stable baseline. Solutions of low pH (<7) are delivered to the chamber through a custom-made gravity-driven flowpipe, the tip of which is placed approximately 50 μm from the cell. Application is triggered when the tubing connected to the flowpipe is compressed by a valve controlled by the Pulse-software. Initially, low pH (in general, pH 6.5) is applied for 1 s every 45 s. The sample interval during application is 550 μs. After stable responses are obtained, the extracellular saline as well as the low-pH solution are switched to solutions containing the compound to be tested. The compound is present until responses of a repeatable amplitude are achieved. Current amplitudes are measured at the peak of the responses, and effect of the compounds is calculated as the amplitude at compound equilibrium divided by the amplitude of the current evoked by the pulse just before the compound was included.
The following salt solutions are used: extracellular solution (mM): NaCl (140), KCl (4), CaCl2 (2), MgCl2 (4), HEPES (10, pH 7.4); intracellular solution (mM): KCl (120), KOH (31), MgCl2 (1.785), […] (10), HEPES (10, pH 7.2). In general, compounds for testing are dissolved in 50% DMSO at 500 fold the highest concentration used.
The cDNA for ASIC1a and ASIC3 can be cloned from rat poly(A)^+ mRNA and put into expression vectors according to Hesselager et al. (J Biol Chem. 279(12):11006-15 2004). All constructs are expressed in CHO-K1 cells (ATCC no. CCL61). CHO-K1 cells are cultured at 37° C. in a humidified atmosphere of 5% CO2 and 95% air and passaged twice every week. The cells are maintained in DMEM (10 mM HEPES, 2 mM glutamax) supplemented with 10% fetal bovine serum and 2 mM L-proline (Life Technologies). […]

[2] = target: T2, ASIC3 (Rattus norvegicus, UniProt O35240); test: whole cell patch clamp electrophysiology, ASIC3; format: cell-based
T2 construct: expressed in transfected cells
T2 sequence (O35240 1-533): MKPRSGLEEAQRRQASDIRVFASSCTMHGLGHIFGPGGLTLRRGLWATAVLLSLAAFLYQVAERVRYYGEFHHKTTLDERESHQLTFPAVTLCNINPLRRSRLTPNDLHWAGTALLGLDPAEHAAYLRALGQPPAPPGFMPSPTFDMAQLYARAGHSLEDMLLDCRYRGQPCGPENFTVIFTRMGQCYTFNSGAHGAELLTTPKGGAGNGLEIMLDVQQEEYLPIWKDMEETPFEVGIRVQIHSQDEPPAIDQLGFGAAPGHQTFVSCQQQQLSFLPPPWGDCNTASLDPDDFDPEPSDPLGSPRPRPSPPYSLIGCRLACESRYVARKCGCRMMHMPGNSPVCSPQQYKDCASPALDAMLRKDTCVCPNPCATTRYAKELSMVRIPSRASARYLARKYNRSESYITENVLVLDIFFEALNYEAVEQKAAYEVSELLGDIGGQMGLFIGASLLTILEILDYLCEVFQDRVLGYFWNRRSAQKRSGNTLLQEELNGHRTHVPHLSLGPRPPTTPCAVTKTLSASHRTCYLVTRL
Experimental: as §1, §2, §3, §4
as §5, with “included. […]” for “included.”

Structure (SMILES): C=CC1CN2CCC1CC2[C@@H](OC(=O)CCC1CCCC1)c1ccnc2ccccc12 (some centres unmarked) [Compound A]
- Fraction of Control, ASIC1a - pH Dependency ([1]; pH 5.0): greater than .85
- Fraction of Control, ASIC1a - pH Dependency ([1]; pH 6.0): greater than .85
- IC50 ([1]; patch clamp, HEK cells, pH 6.5): 17 to 23 µM
- Fraction of Control, ASIC3 - pH Dependency ([2]; 10 μM compound, pH 5.0): greater than .75
- IC50 ([2]; patch clamp, pH 6.5): 4 to 6 µM
